Key:
[1] = test system: tail flick model in mice; assay: Tail flick model: analgesic effect and tolerance to morphine; type: in vivo, ICR male mice; conditions: for analgesic activity administered separately: escalating doses of up to 10 mg/kg i.p.
From the text: A mice model of acute pain, the tail flick model, was used to test the ability of compounds to prolong the analgesic activity of opioids, by preventing the development of tolerance, and their ability to reverse established tolerance.
The following animal model of acute pain was used to assess the potential analgesic effects of test compounds either alone or in combination with morphine. […] In this model the nociceptive stimulus is thermal and the latency time till the animal flicks its tail is monitored (Le Bars D., Gozariu M. & Cadden S. W., Pharmacol. Rev. 53: 597–652, 2001).
Hyperalgesia to radiant heat was assessed as follows. ICR male mice (20–30 g average body weight, Harlan, Israel) were injected with test compounds i.p. at the volume dose of 5 ml/kg. Each treatment group contained at least 6 animals. The test compounds were dissolved in Cremophor®:ethanol (70:30 weight/weight) and diluted 1:20 in saline prior to injection. Morphine HCl was directly dissolved in saline. Its vehicle was also included as control. Pain threshold was determined 30 minutes post-administration by measuring the foot-withdrawal latency defined as the time from the onset of radiant heat to foot withdrawal. The cut-off time was preset to 10 seconds in order to prevent tissue damage. […] Test compounds (5 mg/kg) and vehicle (5 ml/kg) were administered 15 minutes before morphine and pain threshold was determined 30 minutes after the first injection of morphine on day 1, 5, 8 and 10. […] Pain threshold was determined on day 1 and 10.
In each type of study, the animals were tested on given days 30 minutes after morphine injection in the tail flick apparatus (Socrel, model DS 20). Animals were gently held while their tails were located above the photoelectric cell. The tails were then illuminated (21V) at 2 cm from the distal tip and the latency time, measured in seconds, was recorded in duplicates. The results are expressed either as absolute latency time or as percent of animals that enjoyed significant analgesia as measured by the fact that their latency time is at least twice the latency time for vehicle treated animals. At the end of the study, the animals were euthanized by i.p. injection of 100 mg/kg sodium pentobarbitone.
The differences between the latency times among various treatment groups was analyzed by analysis of variance (ANOVA) followed by post-hoc Duncan test. The differences between the % of animals showing analgesia among various treatment groups was analyzed by analysis of variance (ANOVA) followed by post-hoc Fisher exact test. A value of p<0.05 is considered to be statistically significant.

[2] = test system: T1, nitric oxide synthase (NOS); assay: Inhibition of nitric oxide synthase, fluorimetric nitrite assay in LPS-stimulated macrophage supernatants; type: cell-based; conditions: macrophage cell cultures
T1 construct: endogenous in cells
T1 sequence (P35228 whole entry): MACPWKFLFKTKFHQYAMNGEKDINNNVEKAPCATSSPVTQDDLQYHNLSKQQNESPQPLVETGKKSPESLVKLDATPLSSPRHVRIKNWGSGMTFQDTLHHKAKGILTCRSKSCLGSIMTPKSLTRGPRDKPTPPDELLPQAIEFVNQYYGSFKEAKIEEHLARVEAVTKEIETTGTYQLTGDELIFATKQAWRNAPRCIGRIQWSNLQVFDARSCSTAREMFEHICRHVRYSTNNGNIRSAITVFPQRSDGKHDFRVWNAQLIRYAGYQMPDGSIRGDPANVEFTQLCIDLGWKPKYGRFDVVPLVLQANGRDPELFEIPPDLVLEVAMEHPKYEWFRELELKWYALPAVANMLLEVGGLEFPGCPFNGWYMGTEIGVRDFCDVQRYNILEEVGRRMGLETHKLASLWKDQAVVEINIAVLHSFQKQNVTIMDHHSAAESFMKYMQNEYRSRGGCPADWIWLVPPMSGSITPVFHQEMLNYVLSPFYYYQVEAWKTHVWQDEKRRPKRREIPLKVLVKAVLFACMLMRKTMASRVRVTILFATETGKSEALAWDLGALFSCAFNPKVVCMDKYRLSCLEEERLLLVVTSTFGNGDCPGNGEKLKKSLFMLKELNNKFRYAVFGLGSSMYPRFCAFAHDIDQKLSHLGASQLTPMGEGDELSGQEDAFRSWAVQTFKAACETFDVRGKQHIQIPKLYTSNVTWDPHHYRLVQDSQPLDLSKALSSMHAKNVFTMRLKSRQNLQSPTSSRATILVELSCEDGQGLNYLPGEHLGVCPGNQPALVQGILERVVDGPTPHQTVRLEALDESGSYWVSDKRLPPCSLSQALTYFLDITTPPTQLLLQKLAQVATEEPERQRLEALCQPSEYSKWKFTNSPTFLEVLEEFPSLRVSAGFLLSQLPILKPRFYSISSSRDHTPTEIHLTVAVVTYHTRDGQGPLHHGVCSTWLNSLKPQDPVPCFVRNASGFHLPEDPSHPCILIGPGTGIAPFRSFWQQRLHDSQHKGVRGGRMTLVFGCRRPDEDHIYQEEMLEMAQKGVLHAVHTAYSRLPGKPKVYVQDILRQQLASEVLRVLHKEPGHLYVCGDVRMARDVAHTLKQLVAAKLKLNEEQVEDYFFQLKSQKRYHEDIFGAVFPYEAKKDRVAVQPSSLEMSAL
Experimental: As one aspect of the anti-oxidative potential of the novel analogs they were tested for their ability to inhibit the enzyme nitric oxide synthase (NOS). This assay can also serve as another indication of the anti-inflammatory cascade, as well as the anti-oxidative mechanisms.
The final products of NOS are Nitrite (NO2) and Nitrate (NO3). The in vitro fluorimetric assay provides an accurate method for the measurement of the Nitrite, which is the majority of NO products. The principle of the fluorimetric assay is based on the addition of DAN (2,3-diaminonaphthalene) to the aliquots of the supernatants collected from macrophage cell cultures incubated with the new analogs and stimulated with LPS. Following, NaOH was added to convert Nitrite to a fluorescent compound 1(H)-naphthtriazole. The fluorescence was measured immediately in a fluorimeter using excitation wavelength of 365 nm and an emission wavelength of 450 nm.

[3] = test system: NMDA receptor; assay: [3H]MK-801 displacement radioligand binding, rat forebrain membranes
Experimental: The identification of possible recognition sites for PRS-211 analogs was carried out by measuring the ability of these PRS-211 analogs to inhibit the binding of MK-801 to rat forebrain membranes.
Brains were removed from Sprague-Dawley rats no more than 5 min after decapitation. Membrane preparations were isolated according to a procedure described previously (Eshhar et al., Brain Res. 476:57, 1989). Prior to radioligand binding measurements, endogenous glutamate present in membranes was removed from the preparation by subjecting the membranes to 3–4 successive washings in 10 mM Tris HCl pH 7.2, performed at 4° C.
The specific binding of the new analogs to NMDA receptors was determined by their ability to displace [^3H]MK-801 from NMDA receptor in rat forebrain preparations. Specifically, rat-forebrain membranes (0.1 mg) were incubated for 2 hours at room temperature with 10 nM of tritiated MK-801 and with the PRS-211 compounds at 3 doses each. Non-specific binding was determined by the use of 0.1 mM MK-801. Following the incubation, bound radioligand was separated from unbound by filtration through GF/B filters. The filters were counted in a β-counter and log of analog concentrations versus % of [^3H]MK-801 specific binding was plotted. The IC50 was calculated from this plot.
Binding of [^3H]MK-801 to membranes was carried out in the presence of 30 μM glycine and 10 μM L-glutamate. Membranes (250 μg protein) were resuspended in 50 mM tris-acetate pH 7.4 buffer and incubated with 10 nM [^3H]MK-801, either alone or in the presence of PRS-211 compounds at 0.1–100 μM concentrations for three hours at room temperature (RT). Reaction buffers used in the different radioligand binding studies contained 10% of an ethanol/Emulphor 620/deionized water mixture. The ratio (by volume) of the respective components in the mixture was 20/3/57. This mixture is required for solubilizing PRS-211 compounds at concentrations above 30 μM. Reaction volume was 1 ml. Non-specific [^3H]MK-801 binding was determined in the presence of 100 μM unlabeled MK-801.
Concentration dependence of certain PRS-211 analogs on inhibition of [^3H]MK-801 binding is illustrated in FIG. 1.

## CCCCCCC(C)(C)c1cc(O)c2c(c1)OC(C)(C)C1CC=C(CSc3ncc[nH]3)CC21 (single isomer, unassigned; (+)) [211,092-000]
[1]
  analgesic activity administered separately: no significant analgesic activity
[2]
  inhibition at 10 µM: 86%
[3]
  NMDA receptor binding / affinity (in words): low affinity

## CCCCCCC(C)(C)c1cc(O)c2c(c1)OC(C)(C)C1CC=C(Cn3ccnc3)CC21.Cl (single isomer, unassigned; (+)) [211,095-000, (+)-(3S ,4S )-6,6-Dimethyl-(1,1-dimethylheptyl)-1-hydroxy-9-(imidazolomethyl)-6a,7,10,10a-tetrahydro-6H-dibenzo[b,d]pyran]
[1]
  analgesic activity administered separately: no significant analgesic activity
[2]
  inhibition at 10 µM: 34%
[3]
  NMDA receptor binding / affinity (in words): relatively high affinity

## CCCCCCC(C)(C)c1cc(O)c2c(c1)OC(C)(C)[C@H]1CC=C(CO)CC21 (stereo partly drawn) [211,007-000, 1,1 dimethyl heptyl-(3S,4S)-7-hydroxy-Δ^6-tetrahydrocannabinol]
[2]
  inhibition at 10 µM: 20%
[3]
  NMDA receptor binding / affinity (in words): competes with the binding of MK-801 to membranes
[3]; rat forebrain membranes, read-out: inhibition constant (KI) of [3H]MK-801 binding
  Ki: 11 ± 1.3 µM
[3]; rat forebrain membranes, read-out: mean IC50 of [3H]MK-801 binding (FIG. 2)
  IC50: 10 µM

## CCCCCCC(C)(C)c1cc(O)c2c(c1)OC(C)(C)[C@H]1CC=C(Cn3cccn3)C[C@H]21 [211,220-000, (+)-(3S,4S)-6,6-Dimethyl-(1,1-dimethylheptyl)-1-hydroxy-9-(pyrazolomethyl)-6a,7,10,10a-tetrahydro-6H-dibenzo[b,d]pyran]
[1]; 5 mg/kg in combination with 10 mg/kg i.p. morphine over 10 days
  development of tolerance to morphine: effective in reducing the development of tolerance toward opioid
[1]
  analgesic activity administered separately: no significant analgesic activity
[1]; in combination with morphine from day 11, tested day 12, 15, 17, PRS-211,220 5 mg/kg, dextromethorphan 20 mg/kg
  reversal of established tolerance to morphine: trend of reversal at all time points tested which became statistically significant on day 17
[2]
  inhibition at 10 µM: 24%
[3]
  NMDA receptor binding / affinity (in words): relatively high affinity

Reference: US7235584B2, “Non-psychotropic cannabinoids” (Pharmos Corporation, priority 2000, dated 2007)
